Source: ChEMBL document CHEMBL4251642 (Eur J Med Chem, 2018)
The source made the active and inactive calls. The rule behind the calls is not given here.

What was measured:
[1] = test system: Influenza A virus; assay: Antiviral activity against Influenza A virus (A/WSN/1933(H1N1)) harboring neuraminidase H275Y mutant infected in BALB/c mouse assessed as mouse survival at 0.96 umol/day, po for 5 consecutive days measured on day 10 post dose; format: functional
[2] = test system: Influenza A virus; assay: Antiviral activity against Influenza A virus (A/WSN/1933(H1N1)) harboring neuraminidase H275Y mutant infected in MDCK cells assessed as inhibition of virus-induced cytopathic effect after 48 hrs by CellTiter96 Aqueous non-radioactive cell proliferation assay; format: functional, organism-based
[3] = test system: Influenza A virus; assay: Antiviral activity against Influenza A virus (A/WSN/1933(H1N1)) harboring neuraminidase H275Y mutant infected in BALB/c mouse assessed as recovery of mouse weight at 0.96 umol/day, po for 5 consecutive days measured on day 14 post dose; format: functional, organism-based
[4] = test system: Influenza A virus; assay: Antiviral activity against Influenza A virus (A/WSN/1933(H1N1)) harboring neuraminidase H275Y mutant infected in BALB/c mouse assessed as mouse survival at 0.96 umol/day, po for 5 consecutive days measured on day 14 post dose; format: functional
[5] = test system: Mus musculus; assay: Toxicity in BALB/c mouse infected with Influenza A virus (A/WSN/1933(H1N1)) harboring neuraminidase H275Y mutant assessed as change in body weight at 0.96 umol/day, po for 5 consecutive days; format: organism-based; conditions: in vivo

| Structure (SMILES) | Survival [1] [%] | EC50 [2] [nM] | Activity [3] | Survival [4] [%] | Activity [5] | Activity [4] |
| --- | --- | --- | --- | --- | --- | --- |
| CCOC(=O)C1=C[C@@H](OC(CC)CC)[C@H](NC(C)=O)[C@@H](N)C1 [OSELTAMIVIR] | 20 | – | – | – | – | – |
| CCC(CC)[C@H](NC(C)=O)[C@@H]1[C@H](OC(=O)NCCCNC(=O)/C=C/c2ccc(O)c(O)c2)[C@@H](C(=O)O)C[C@H]1NC(=N)N | – | 18.1 | Active | 90 | Non-Toxic | – |
| CCC(CC)[C@H](NC(C)=O)[C@@H]1[C@H](O)[C@@H](C(=O)O)C[C@H]1NC(=N)N [PERAMIVIR ANHYDROUS] | – | 643 | – | – | – | – |
| CCC(CC)[C@H](NC(C)=O)[C@@H]1[C@H](OC(=O)NCCCOC(=O)/C=C/c2ccc(O)c(O)c2)[C@@H](C(=O)O)C[C@H]1NC(=N)N | – | 15.5 | Active | – | Non-Toxic | Active |
| CCC(CC)OC1C=C(C(=O)O)C[C@H](N)[C@H]1NC(C)=O (some centres not stated) | – | 3520 | – | – | – | – |
| CCC(CC)[C@H](NC(C)=O)[C@@H]1[C@H](OC(=O)NCCCN)[C@@H](C(=O)O)C[C@H]1NC(=N)N | – | 405 | – | – | – | – |
| CCC(CC)[C@H](NC(C)=O)[C@@H]1[C@H](OC(=O)NCCCO)[C@@H](C(=O)O)C[C@H]1NC(=N)N | – | 1010 | – | – | – | – |
| CCC(CC)[C@H](NC(C)=O)[C@@H]1[C@H](OC(=O)NCCCOCCCc2ccc(O)c(O)c2)[C@@H](C(=O)O)C[C@H]1NC(=N)N | – | 71.6 | Active | – | Non-Toxic | Active |
